Experimental data taken from US11767286B2, “Phenylpropionate compound, preparation method for same, and applications thereof” (SUZHOU PHARMAVAN CO., LTD, priority 2017, dated 2023).
Read-outs that look alike come from different tables or passages of the source.

Tests used:
[1] = tested on: platelet aggregation induced with a platelet activating factor; test: Maximum platelet aggregation rate of rabbits, induced with PAF; type: cell-based; conditions: rabbit plasma, 4 mg/kg as printed; for inhibition at 4 mg/kg: Oryctolagus cuniculus, Platelet, n=3, read-out: Inhibiton rate on Aggregation; for Maximum Aggregation Rate: n=3
Description: (§1) Effects on maximum platelet aggregation rate of rabbits: 3 Rabbits were anesthetized, and blood was collected from the heart to obtain 14 parts of plasma for each rabbit (1 ml per part of plasma). 7 Parts were induced with ADP to allow platelet aggregation, and 7 parts were induced with a platelet activating factor. After the induction, a solvent, positive control drug aspirin, and 5 samples to be trialed were separately added to the plasma, and maximum platelet aggregation rate was detected with a platelet aggregation meter. The trials were repeated 3 times, and an average was taken. Detected indicator: maximum platelet aggregation rate.
(§2) Table 4 lists results of effects of phenylpropionate compounds (4 mg/kg) on platelet aggregation rate of rabbits (n=3).

[2] = tested on: platelet aggregation induced with ADP; test: Maximum platelet aggregation rate of rabbits, induced with ADP; type: cell-based; conditions: rabbit plasma, 4 mg/kg as printed, n=3; for inhibition at 4 mg/kg: Oryctolagus cuniculus, Platelet
Description: as §1, §2

[3] = tested on: rats with acute cerebral ischemia-reperfusion; test: Cerebral infarction area of rats with acute cerebral ischemia-reperfusion (MCAO, suture method); type: in vivo, SD rats; design: Cerebral Infarction Area: unit not given here; conditions: n=5; for Cerebral Infarction Area: 4 mg/kg iv 2 h after reperfusion (2 h MCAO), sampled 4 h after administration; for inhibition in vivo at 4 mg/kg: Rattus norvegicus, 4 h, 4 mg/kg iv 2 h after reperfusion, vs solvent control, read-out: Percentage of Cerebral Infarction Area Reduction
Description: (§3) Trial method: Effects on inflammatory factors and blood viscosity of rats with acute cerebral ischemia-reperfusion: 70 Male SD rats underwent an MACO surgery by a suture method, and after the surgery, alive rats were randomly grouped (into 7 groups, the number of successful animals in each group was guaranteed to be 6 to 8). Blood perfusion was recovered 2 h after MCAO, and corresponding trial medicaments were intravenously injected 2 h after blood reperfusion. 4 hours after the administration, blood was collected and the rats were sacrificed to take out brain tissues. The brain tissues and part of the blood were centrifuged to collect serum which was detected for inflammatory factors, and part of the blood was detected for blood viscosity by using a blood viscometer. Detected indicators: cerebral infarction area; inflammatory factors IL-1β and TNF-α; and blood viscosity.
Table 1 lists results of effects of phenylpropionate compounds (4 mg/kg) on cerebral infarction area of rats with acute cerebral ischemia (n=5).

[4] = tested on: IL-1β; test: Inflammatory factor IL-1β in blood and brain tissues of rats with acute cerebral ischemia-reperfusion; type: in vivo, SD rats; conditions: 4 mg/kg iv 2 h after reperfusion; 4 h after administration; n=5
Description: as §3
(§4) Table 3 lists results of effects of phenylpropionate compounds (4 mg/kg) on inflammatory factors in blood and brain tissues of rats (n=5).

[5] = tested on: TNF-α; test: Inflammatory factor TNF-α in blood and brain tissues of rats with acute cerebral ischemia-reperfusion; type: in vivo, SD rats; conditions: 4 mg/kg iv 2 h after reperfusion; 4 h after administration; n=5
Description: as §3, §4

[6] = tested on: rats with acute cerebral ischemia-reperfusion; test: Blood viscosity of rats with acute cerebral ischemia-reperfusion (blood viscometer); type: in vivo, SD rats; design: unit not given here; conditions: 4 mg/kg iv 2 h after reperfusion; blood 4 h after administration; n=5
Description: as §3
Table 2 lists results of effects of phenylpropionate compounds (4 mg/kg) on blood viscosity of rats (n=5).

[7] = Distribution in brain: plasma and intracerebral concentrations after intravenous injection; type: in vivo; conditions: both sexes, rat, rats, 4 mg/kg iv; for Kp at 10 min / Kp at 60 min / Kp at 180 min: brain/plasma, read-out: Brain/Blood Concentration Ratio
Description: In this example, Compounds A to E, D-bornyl ferulate, and D-tanshinol borneol ester were measured for distribution in brain. Structures of D-bornyl ferulate (Patent Application No.: 201510243181.5) and D-tanshinol borneol ester compounds are as follows:
Method for testing distribution in brain: 42 rats with a weight range of 200±20 g were taken. The rats were randomly divided into 7 groups, with 6 rats per group, half male and half female. Rats were fasted with free access to water for 12 h and then intravenously injected with 4 mg/kg of a compound. Rats in the 3 groups were sacrificed through femoral artery bleeding and collected for blood 10 min, 60 min, 180 min after administration, respectively. Brains were taken out, 0.2 g was weighted, and 1 mL of pure water was added for homogenizing. The blood samples and brain homogenate samples were stored at −20° C.
Distribution of Compounds A to E, and D-bornyl ferulate and D-tanshinol borneol ester compounds in brain: Data on concentrations of Compounds A to E, D-bornyl ferulate, and D-tanshinol borneol ester in plasma and intracerebral in rats intravenously injected with 4 mg/kg of Compounds A to E, D-bornyl ferulate, and D-tanshinol borneol ester are listed in Table 9.

[8] = tested on: SD rat model of focal ischemia-reperfusion; test: Dose-effect relationship in SD rat model of focal ischemia-reperfusion (MCAO); type: in vivo, SD rats; conditions: 4.0 mg/kg, given 2 h after reperfusion, mean ± standard error
Description: In this example, phenylpropionate compounds were studied for dose-effect relationship, with D-bornyl ferulate (administrated at 4.0 mg/kg) and D-tanshinol borneol ester (administrated at 4.0 mg/kg) as positive control drugs. Structures of D-bornyl ferulate (Patent Application No.: 201510243181.5) and D-tanshinol borneol ester compounds are as follows:
Trial method: A cerebral ischemia reperfusion model of middle cerebral artery occlusion (MCAO) was prepared by an internal carotid artery suture method. An animal was anesthetized with 10% chloral hydrate (3.6 mL/kg) and then fixed on an operating table in a supine position. Its skin was disinfected, and a midline incision was made on the neck. The right common carotid artery, external carotid artery, and internal carotid artery were separated, the vagus nerve was gently striped off, and the external carotid artery was ligated and cut. The common carotid artery was clamped at the proximal end. […] The nylon thread was advanced through the bifurcation of the common carotid artery into the internal carotid artery, and then was slowly inserted until there was slight resistance (about 20 mm from the bifurcation) to block all the blood supply to the middle cerebral artery. 2 h after cerebral ischemia, the nylon thread was gently pulled out to restore blood supply for reperfusion, and the neck skin was sutured and disinfected. The animal was put back in a cage and raised. During the modeling operation, animals with abnormal conditions due to anesthesia, surgery, etc. were excluded, and successfully modeled animals were randomly grouped. Schemes were set according to different trial doses, and drug treatment was given 2 h after cerebral ischemia-reperfusion. Death conditions were recorded every day after the surgery, and indicators were evaluated after 48 h. In the whole trial process, general conditions were observed, mainly including: death, coma, breathing, urine and feces traits, hair colors, mental status, vomiting and vomitus, bleeding, convulsion, spasm, etc. Abnormal animals due to unexpected factors were excluded. Finally, unblinding was conducted by a person who made blind trials.
Evaluated indicator: (1) Evaluation of symptoms of neurological deficits: The symptoms of neurological deficits were evaluated by using a modified Bederson 5-point scale. A single-blind method was used for evaluating the symptoms of neurological deficits in rats with brain trauma. That is, a trial designer marked animals in accordance with groups, and an experimenter who scored the symptoms of neurological deficits had no knowledge of how the animals were grouped. After scoring was completed, the scorer submitted scoring results for various marks to the designer, and the designer performed unblinding to obtain scores of animals in each trial group. (2) Measurement of cerebral infarction area: A method reported in the literature was used. An animal was anesthetized with 10% chloral hydrate and decapitated to collect brain. The olfactory bulb, cerebellum and lower brain stem were removed. Blood stains on the surface of the brain were rinsed with normal saline, the residual water stains on the surface were absorbed, and the brain was placed at −80° C. for 7 min. After the brain was taken out, a coronal section was immediately made at downwards and vertical to the sight intersection plane, and brain slices were made every 2 mm backwards. Brain slices were placed in a TTC (20 g/L) dye solution prepared with 0.9% normal saline, and incubated at 37° C. for 90 min. Normal brain tissues were stained deep red, and ischemic brain tissues were pale-white. After rinsed with normal saline, the brain sections were quickly arranged in order from front to back, the residual water stains on the surface were absorbed to dryness, and pictures were taken. Image analysis software was used for statistics on the pictures. […]

[9] = brain, read-out: Mean Intracerebral Concentration
[10] = plasma, read-out: Mean Plasma Concentration

| SMILES | inhibition at 4 mg/kg [1] | Maximum Aggregation Rate [1] | inhibition at 4 mg/kg [2] | Maximum Aggregation Rate [2] | Cerebral Infarction Area [3] | inhibition in vivo at 4 mg/kg [3] | IL-1β [4] | TNF-α [5] | Blood viscosity, High Shear [6] | Blood viscosity, Low Shear [6] | Kp at 10 min [7] | Kp at 60 min [7] | Kp at 180 min [7] | concentration at 10 min [7, 9] | concentration at 60 min [7, 9] | concentration at 180 min [7, 9] | concentration at 10 min [7, 10] | concentration at 60 min [7, 10] | concentration at 180 min [7, 10] | further results |
| --- | --- | --- | --- | --- | --- | --- | --- | --- | --- | --- | --- | --- | --- | --- | --- | --- | --- | --- | --- | --- |
| CC1(C)[C@@H]2CC[C@@]1(C)[C@@H](OC(=O)CCc1ccc(O)c(OC(F)(F)F)c1)C2 [Compound E] | 39.1% | 43.5 ± 8.4 % | 46.2% | 17.7 ± 5.46 % | 19.8 ± 3.61 | 46% | 64.3 ± 8.1 ng/L | 573 ± 43.0 ng/L | 2.73 ± 0.405 | 13.5 ± 1.183 | 3.4 | 3.5 | 3.7 | 3020 ± 527 ng/g | 959 ± 337 ng/g | 314 ± 56.6 ng/g | 887 ± 222 ng/mL | 274 ± 102 ng/mL | 84.6 ± 42.3 ng/mL | – |
| COc1cc(/C=C/C(=O)O[C@H]2C[C@H]3CC[C@]2(C)C3(C)C)ccc1O [D-bornyl ferulate, reference compound] | 36.4% | 45.4 ± 2.64 % | 46.5% | 17.6 ± 4.59 % | 21.7 ± 4.35 | 40.9% | 64.8 ± 5.8 ng/L | 658 ± 23.6 ng/L | 2.84 ± 0.323 | 13.8 ± 0.574 | 0.52 | 5 | 5.8 | 1490 ± 219 ng/g | 701 ± 136 ng/g | 276 ± 81.3 ng/g | 2890 ± 671 ng/mL | 138 ± 55 ng/mL | 47.1 ± 21.6 ng/mL | Score of Symptoms of Neurological Deficits ([8]; 48 h, modified Bederson 5-point scale): 1.94 ± 0.19; Infarction area ([8]; evaluated after 48 h): 21.68 ± 2.80 % |
| CC(=O)Oc1ccccc1C(=O)O [Aspirin, aspirin, reference compound] | 40.8% | 41.3 ± 1.53 % | 54.1% | 14.8 ± 3.99 % | 22.7 ± 4.05 | 38% | 62.9 ± 11.5 ng/L | 647 ± 45.2 ng/L | 2.64 ± 0.199 | 12.2 ± 0.742 | – | – | – | – | – | – | – | – | – | – |
